The values below come from US8273738B2, “Imidazole derivatives” (priority 2006, dated 2012).

One may read the Ki as the equilibrium dissociation constant of an inhibitor or competing ligand from its target. A low value points to higher affinity. What is called EC50 is the concentration needed to bring the measured effect to its halfway point. Lower therefore signals higher potency in that assay. In general, Emax refers to the greatest response seen or fitted, relative to the assay's reference.

The subject of experiment [1] is rats with chronic constriction nerve injury. Description: Analgesic effect in rats with chronic constriction nerve injury (von Frey filament). In kind it is in vivo, rat. Particulars: oral, dose of 50 mg/kg or less, one hour after administration, von Frey filaments. An excerpt: Rats with chronic constriction nerve injury were produced by partially modifying the method of Mosconi and Kruger et al. (Pain, vol. 64, pp. 37-57 (1996))
Male Crl:CD(SD) rats were used for the experiments. Under pentobarbital anesthesia, the sciatic nerve of the left hind limb of the rat was exfoliated, and the exfoliated region was wrapped with a polyethylene tube (trade name: Intramedic, size: PE-60, manufactured by Becton Dickinson and Company) of 2 mm in length. On days 14 to 21 after the surgery, the rats were placed in an acrylic connected cage with a wire mesh floor (900 mm (length)×210 mm (depth)×140 mm (height)) consisting of 4 cages connected in a row and allowed to acclimate to the environment for at least 20 minutes, and then, the pain was evaluated.
The von Frey filament (trade name: touch test sensory evaluator, Model number: model 58011, manufactured by Muromachi Kikai) was used to evaluate pain, and the results were calculated as a pain threshold. That is, by using a von Frey filament of different stimulus intensity, stimulation was given to the plantar surface of the injured side of rats with chronic constriction nerve injury, and the stimulus intensity to cause paw withdrawal response was obtained. Then, the 50% pain threshold (Paw withdrawal threshold) (g) was calculated by the up down method of Dixon [Annual Review of Pharmacology and Toxicology, vol. 20, pp. 441-462 (1980)].
In the evaluation of the test compound, rats with 50% pain threshold of less than 4 g were used, and the test compound was dissolved in a 0.5% aqueous methyl cellulose solution and orally administered at a dose of 5 mL/kg. One hour after the administration, the pain threshold was measured using von Frey filaments.

Experiment [2] deals with T1, CB2 receptor (Rattus norvegicus, UniProt Q9QZN9).
T1 construct: from tissue; host or cells: rat spleen membrane specimen
T1 sequence (Q9QZN9 1-360): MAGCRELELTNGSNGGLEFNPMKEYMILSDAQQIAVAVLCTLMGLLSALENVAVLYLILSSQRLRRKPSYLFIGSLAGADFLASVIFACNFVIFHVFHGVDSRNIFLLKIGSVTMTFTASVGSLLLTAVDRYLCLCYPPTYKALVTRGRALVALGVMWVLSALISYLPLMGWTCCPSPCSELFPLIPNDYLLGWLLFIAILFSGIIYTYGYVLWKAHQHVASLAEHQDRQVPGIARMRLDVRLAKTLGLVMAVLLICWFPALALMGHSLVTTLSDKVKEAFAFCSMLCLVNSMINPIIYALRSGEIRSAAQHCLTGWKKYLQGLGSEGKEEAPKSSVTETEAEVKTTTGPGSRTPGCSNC
Nature of the experiment: Cannabinoid CB2 receptor-binding activity ([3H]CP55940 binding experiment), rat spleen membrane specimen. How it is done: A test was carried out according to the method of Hillard et al. [The Journal of Pharmacology and Experimental Therapeutics, vol. 289, p. 1427 (1999)]. A rat forebrain membrane specimen and a rat spleen membrane specimen were prepared and used in a binding experiment for a CB1 receptor and a binding experiment for a CB2 receptor, respectively. The membrane specimen (forebrain: final concentration of 0.5 mg of protein/mL, spleen: final concentration of 2 mg of protein/mL) was incubated together with a test compound and [^3H]CP55940 (manufactured by PerkinElmer) ((−)-cis-3-[2-hydroxy-[3,5-^3H]-4-(1,1-dimethylheptyl)phenyl]-trans-4-(3-hydroxypropyl)cyclohexanol)) (final concentration: 0.5 nmol/L) in an assay buffer (50 mmol/L Tris-HCl buffer (pH 7.4), 1 mmol/L EDTA and 3 mmol/L MgCl2) containing 0.1% bovine serum albumin at 25° C. for 1 hour, and the resulting mixture was filtered using a glass filter GF/C (manufactured by Whatman) treated with 1% polyethyleneimine. After the glass filter was washed with the assay buffer containing 0.2% bovine serum albumin, the radioactivity on the glass filter was measured using a liquid scintillation counter (TRI-CARB 2700TR, manufactured by Packard). The binding amount in the presence of 10 μmol/L […] (manufactured by Tocris) ((R)-(+)-[2,3-dihydro-5-methyl-3-(4-morpholinylmethyl)pyrrolo[1,2,3-de]-1,4-benzoxazin-6-yl]-1-naphthalenylmethanone) was considered to be a non-specific binding amount, and a difference between the total binding amount and the non-specific binding amount was considered to be a specific binding amount. The 50% inhibitory concentration (IC50 value) of the test compound against the specific binding was obtained, and the Ki value of the test substance was calculated from the 50% inhibitory concentration and the Kd value of the [^3H]CP55940 binding.

The target of experiment [3] is T2, human CB2 receptor (Homo sapiens, UniProt P34972).
T2 construct: expressed in transfected cells
T2 sequence (P34972 whole entry): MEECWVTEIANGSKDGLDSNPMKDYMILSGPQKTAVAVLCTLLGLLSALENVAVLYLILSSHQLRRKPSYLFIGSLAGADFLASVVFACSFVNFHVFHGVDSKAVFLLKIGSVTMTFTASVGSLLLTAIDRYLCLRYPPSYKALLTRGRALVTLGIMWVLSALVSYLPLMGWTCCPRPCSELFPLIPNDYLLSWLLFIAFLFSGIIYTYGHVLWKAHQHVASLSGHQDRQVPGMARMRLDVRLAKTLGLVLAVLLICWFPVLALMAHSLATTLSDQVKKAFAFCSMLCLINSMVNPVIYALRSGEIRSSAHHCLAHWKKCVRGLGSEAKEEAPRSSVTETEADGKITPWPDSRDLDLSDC
Nature of the experiment: GTPγS binding experiment via human CB2 receptor (membrane fraction of CHO-K1 cells). Particulars: for Emax: read-out: Emax value (maximum effect of CP55940 as 100%). In kind it is biochemical. Here is the method: A test was carried out according to the method of Hillard et al. [The Journal of Pharmacology and Experimental Therapeutics, vol. 289, p. 1427 (1999)]. As for a membrane specimen, a membrane fraction was prepared from CHO-K1 cells in which a human CB2 receptor [Nature, vol. 365, pp. 61-65 (1993)] was stably expressed and used. The membrane specimen (final concentration: 40 μg of protein/mL) was incubated together with a test compound and [^35S]GTPγS (manufactured by PerkinElmer) (final concentration: 0.05 nmol/L) in an assay buffer (50 mmol/L Tris-HCl buffer (pH 7.4), 100 mmol/L NaCl, 1 mmol/L EDTA, 3 mmol/L MgCl2, and 0.1% bovine serum albumin) containing 20 μmol/L guanosine 5′-diphosphate (GDP) at 30° C. for 1 hour, and the resulting mixture was filtered using a glass filter GF/B (manufactured by Whatman). After the glass filter was washed with the assay buffer, the radioactivity on the glass filter was measured using a liquid scintillation counter (TRI-CARB 2700TR, manufactured by Packard). The binding amount in the presence of 10 μmol/L GTPγS was considered to be a non-specific binding amount, and a difference between the total binding amount and the non-specific binding amount was considered to be a specific binding amount. The ratio of increase in the specific binding amount in the presence of the test compound to the specific binding amount in the absence of the test compound was considered to be an agonistic activity of the test compound. The concentration of the test compound that produces 50% of the maximum effect (EC50 value) was calculated by performing a nonlinear regression analysis using the concentration-response data. The percentage of the maximum effect of the test compound (Emax value) was calculated by considering the maximum effect of CP55940 (manufactured by Tocris) measured at the same time as 100%.
(In general: Binding of GTPγS marks nucleotide exchange on a G protein.)

Regarding `CCN(C)C(=O)c1cc(-c2cn(CC3CCOCC3)c(C(C)(C)C)n2)cs1` [Compound 102, 4-[2-tert-Butyl-1-(tetrahydropyran-4-ylmethyl)-1H-imidazol-4-yl]-N-ethyl-N-methylthiophene-2-carboxamide], the “50% pain threshold (paw withdrawal threshold)” value (“50% pain threshold” for short) in experiment [1] is “significantly increased the pain threshold”. The Ki in experiment [2] was < 1000 nM. In addition, in experiment [3], the EC50 is < 1000 nM and the Emax was > 30%.

Consider `CN(CC1CC1)C(=O)c1cncc(-c2cn(CC3CCOCC3)c(C(C)(C)C)n2)n1` [Compound 206, 6-[2-tert-Butyl-1-(tetrahydropyran-4-ylmethyl)-1H-imidazol-4-yl]-N-cyclopropylmethyl-N-methylpyrazine-2-carboxamide], for which the “50% pain threshold” value in experiment [1] is reported as “significantly increased the pain threshold”. The inhibitory constant (Ki) in experiment [2] was < 1000 nM. Moreover, in experiment [3], the EC50 was < 1000 nM and the Emax was > 30%.

Consider `CN(C)C(=O)c1cncc(-c2cn(CC3(F)CCOCC3)c(C(C)(C)C)n2)n1` [Compound 186, 6-[2-tert-Butyl-1-(4-fluorotetrahydropyran-4-ylmethyl)-1H-imidazol-4-yl]-N,N-dimethylpyrazine-2-carboxamide], for which the “50% pain threshold” value in experiment [1] is “significantly increased the pain threshold”. Also, the Ki in experiment [2] is < 1000 nM. In experiment [3], the EC50 was < 1000 nM and the maximal response (Emax) is > 30%.

On to `CN(CC(F)(F)F)C(=O)c1cc(-c2cn(CC3CCOCC3)c(C(C)(C)C)n2)on1` [Compound 204, 5-[2-tert-Butyl-1-(tetrahydropyran-4-ylmethyl)-1H-imidazol-4-yl]-N-methyl-N-(2,2,2-trifluoroethyl)isoxazole-3-carboxamide], for which, in experiment [1], the “50% pain threshold” value is listed as “significantly increased the pain threshold”. Moreover, the Ki in experiment [2] is < 1000 nM. Also, in experiment [3], the EC50 was < 1000 nM and the Emax is > 30%.
